Measured values as given in patent US20210290680A1, “METHODS AND COMPOSITIONS FOR MODULATING CELLULAR AGING” (Dorian Therapeutics, Inc., priority 2019, published 2021).

What was measured:
CHLA-55 cells = test: Re-challenge cytotoxicity assay, GD2.CAR T cells; type: cell-based, human; conditions: after double tumor-challenge, n=3
Protocol: Primary T cells were activated as described (Example 3), transduced with a lentivirus encoding for either a CD19.CAR or a GD2.CAR co-expressing shUSP16 #1, shUSP16 #2 or a scrambled shRNA (Control). Cells were cultured in IL-2 and sorted between days 6-13 for EGFRt. At day 16 cytotoxicity assays were performed. Briefly, cells were counted and 100,000 T cells (adjusted for EGFR expression) were plated at 1:5 Effector:Target (E:T) ratio. At 72 hours, the mixture of tumor cells and T cells were collected, stained for CD3-PE, CD8-BV510, CD19- or GD2-APC, EGFR-AF488 and Sytox and counted by flow cytometry (MACSQuant, Miltenyi Biotec) (FIGS. 30A and 30B). Counting beads (CountBright Absolute Counting beads, Invitrogen) were added before acquisition and absolute number was calculated as following (number of cell events/number of bead events)×(assigned bead count of the lot (beads/50 ul)/volume of sample (ul))=concentration of sample as cells/ul). NALM cells were used as target cells for CD19.CAR T cells and CHLA-55 cells were used as target for GD2.CAR T cells. Three different primary T cell cultures were tested for CD19 and GD2 CAR.
At day 16, regular cytotoxicity assays were also performed (Example 22). Three days post-antigen stimulation, CD19.CAR T cells were stained for EGFR-AF488 (R&D), CD3-PE, CD8-BV510, PD-1-Allophycocyanin and Lag-3 and CTLA4 (Biolegend) and acquired by MACSQuant (Miltenyi Biotec). The co-cultures we also re-challenged with the addition of fresh tumor cells. T cell killing and expansion upon double tumor-challenge was assessed after three days.

USP16 = test: qPCR of USP16 expression; type: cell-based, human; conditions: for downregulation of USP16 (Ctrl vs shRNA): primary T cells, day 15
Excerpt: A new set of shRNAs were cloned into the pSIH backbone, where the shRNA expression is driven by the H1 promoter. The vector was also engineered to co-express GFP and Puromycin resistance through a T2A sequence. The new shRNA sequences were: shUSP16 #1 5′-[…]-3′ (SEQ ID NO: 8) and shUSP16 #2 5′-[…]-3′ (SEQ ID NO: 9). Primary T cells were activated as described (Example 3), transduced with a lentivirus encoding either a shUSP16 #1, shUSP16 #2 or a scrambled shRNA (Control) and cells were selected with puromycin at day 6. Between 1 and 1.25×10^6 cells were plated post-puromycin selection with a purity higher than 90% and counted every 2-4 days by Trypan Blue exclusion using Vi-CELL XR cell counter (Beckman Coulter). qPCR was performed to verify downregulation of USP16 expression (FIG. 14A) and the expression of the senescent marker CDKN1A (FIG. 14B) at day 15. Proliferation was measured as fold increased compared to shControl at day 15 post-activation. The experiment was repeated using primary T cells obtained from buffy coats of 3 different healthy donors.
Primary T cells were activated as described (Example 3). At Day 6 post-activation, dynabeads were removed and T cells electroporated using the Neon Transfection System (ThermoFisher) with a 2.5:1 ratio sgRNA:Cas9. The experiment was performed following the protocol optimized for primary T cell by Synthego (CRISPR Editing Human Primary CD4+ T cells with RNPs using Neon Electroporation Protocol, 2018 version). The sgRNA used are the following: gUSP16 #1 5′-[…]-3′ (SEQ ID NO: 10) and gSynthego that comprises 3 different sgRNAs (gRNA-A: 5′-[…] 3′ (SEQ ID NO: 11); gRNA-B: 5′-[…]-3′ (SEQ ID NO: 12); gRNA-C: 5′-[…]-3′ (SEQ ID NO: 13)). Control T cells, identified as Mock, were electroporated but no Cas9:sgRNA mixture was added. […] At day 15 post-activation, cells were stained for CD4-PE, CD8-BV510, CD62L-Allophycocyanin and CD45RA-APC-Cy7 (Biolegend). Stem cell memory T cells (Tscm) were identified as Sytox^−GFP^+CD45RA^+CD62L^+ and graphed as ratio compared to mock cells (FIG. 22). The experiment was repeated using primary T cells obtained from buffy coats of 2 different healthy donors.
Primary T cells were activated as described (Example 3), transduced with a lentivirus encoding for either a CD19.CAR or a GD2.CAR co-expressing shUSP16 #1, shUSP16 #2 or a scrambled shRNA (Control). Cells were cultured in IL-2 and sorted between days 6-13 for EGFRt. Cells were plated post-sorting with a purity higher than 85% and counted every 2-4 days by Trypan Blue exclusion using Vi-CELL XR cell counter. Fifteen days post-activation both CD19.CAR and GD2.CAR T cells were collected, and qPCR was performed to verify downregulation of USP16 expression (FIG. 24) (fold change GD2.CAR (n=3): Control vs shUSP #1: 0.35, p<0.0001, and Control vs shUSP16 #2: 0.2452, p<0.0001, fold change CD19.CAR (n=4): Control vs shUSP #1: 0.2891, p<0.0001, and Control vs shUSP16 #2: 0.2566, p<0.0001). Proliferation was measured as fold increase compared to control cells at day 15 (FIG. 25).

Substance	CHLA-55 residual cells (CHLA-55 cells)	T cell number (CHLA-55 cells)	USP16 expression, fold change vs Control (USP16; CD19.CAR T cells, day 15, n=4)	USP16 expression, fold change vs Control (USP16; GD2.CAR T cells, day 15, n=3)	downregulation of USP16 (Ctrl vs shRNA) (USP16) [%]
shUSP16 #1: shRNA targeting USP16, 5′-GACTGTAAGACTGACAATAAA-3′ (SEQ ID NO: 8), pSIH backbone or co-expressed in CAR plasmid	436500	404709	0.2891	0.35	56
shUSP16 #2: shRNA targeting USP16, 5′-TATATCAGTTCACCCGTAAT-3′ (SEQ ID NO: 9), pSIH backbone or co-expressed in CAR plasmid	330610	722634	0.2566	0.2452	53
